From ChEMBL document CHEMBL1201862, “PubChem BioAssay data set” (2004)
The source made the active and inactive calls.

What was measured:
Exodeoxyribonuclease V = target: T1, Exodeoxyribonuclease V (Escherichia coli (strain K12), UniProt P04993+P07648+P08394); test: E. coli RecBCD inhibitors, dose response, counter-screen for AddAB inhibitor project, absorbance, V66 E. coli, mutant T4 phage (AID 492957); type: functional, cell-based, Escherichia coli str. K-12 substr. MG1655
T1 sequence (P04993 whole entry): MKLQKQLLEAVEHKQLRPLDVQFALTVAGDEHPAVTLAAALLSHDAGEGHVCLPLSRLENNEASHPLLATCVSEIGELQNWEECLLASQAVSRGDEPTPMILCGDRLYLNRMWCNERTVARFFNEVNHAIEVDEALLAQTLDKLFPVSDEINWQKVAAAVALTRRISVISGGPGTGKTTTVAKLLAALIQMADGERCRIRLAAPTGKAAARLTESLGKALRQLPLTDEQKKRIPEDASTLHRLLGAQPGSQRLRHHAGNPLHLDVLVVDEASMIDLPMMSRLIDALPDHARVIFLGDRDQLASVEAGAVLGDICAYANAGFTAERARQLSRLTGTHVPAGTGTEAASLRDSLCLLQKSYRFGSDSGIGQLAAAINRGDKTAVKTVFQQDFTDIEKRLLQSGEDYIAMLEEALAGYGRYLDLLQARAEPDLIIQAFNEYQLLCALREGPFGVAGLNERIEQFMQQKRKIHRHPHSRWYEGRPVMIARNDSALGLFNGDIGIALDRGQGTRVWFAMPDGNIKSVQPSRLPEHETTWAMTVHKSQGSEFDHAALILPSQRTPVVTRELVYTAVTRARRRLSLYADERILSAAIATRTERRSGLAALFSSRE
T1 sequence (P07648 whole entry): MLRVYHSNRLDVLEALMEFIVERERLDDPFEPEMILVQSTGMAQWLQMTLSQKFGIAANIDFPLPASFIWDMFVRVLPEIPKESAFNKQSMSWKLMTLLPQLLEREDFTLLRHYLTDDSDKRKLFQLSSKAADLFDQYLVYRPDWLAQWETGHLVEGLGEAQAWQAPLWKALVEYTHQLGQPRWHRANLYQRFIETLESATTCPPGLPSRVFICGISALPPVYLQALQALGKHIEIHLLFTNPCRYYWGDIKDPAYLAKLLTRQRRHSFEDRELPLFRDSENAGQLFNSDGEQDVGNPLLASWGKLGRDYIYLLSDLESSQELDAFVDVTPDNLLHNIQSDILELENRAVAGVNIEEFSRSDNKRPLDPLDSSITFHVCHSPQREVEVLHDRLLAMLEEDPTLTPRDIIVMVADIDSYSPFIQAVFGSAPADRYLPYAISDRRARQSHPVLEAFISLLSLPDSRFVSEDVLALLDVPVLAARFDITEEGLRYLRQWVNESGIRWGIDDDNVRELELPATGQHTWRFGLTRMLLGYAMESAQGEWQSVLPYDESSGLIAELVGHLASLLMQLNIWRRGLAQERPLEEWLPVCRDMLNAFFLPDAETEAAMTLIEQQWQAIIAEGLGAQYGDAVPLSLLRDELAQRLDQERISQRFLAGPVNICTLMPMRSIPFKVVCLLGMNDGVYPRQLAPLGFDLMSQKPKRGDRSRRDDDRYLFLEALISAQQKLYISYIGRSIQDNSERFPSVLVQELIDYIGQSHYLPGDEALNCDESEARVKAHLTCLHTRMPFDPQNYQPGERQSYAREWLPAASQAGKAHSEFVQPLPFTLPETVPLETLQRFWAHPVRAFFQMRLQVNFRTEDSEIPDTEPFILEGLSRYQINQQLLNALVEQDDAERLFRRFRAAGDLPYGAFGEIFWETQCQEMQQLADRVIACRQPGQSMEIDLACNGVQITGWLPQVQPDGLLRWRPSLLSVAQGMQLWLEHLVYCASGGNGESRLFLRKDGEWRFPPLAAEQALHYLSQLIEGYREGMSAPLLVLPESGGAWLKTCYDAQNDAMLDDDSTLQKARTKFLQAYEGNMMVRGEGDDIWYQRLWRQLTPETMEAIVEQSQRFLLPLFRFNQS
T1 sequence (P08394 whole entry): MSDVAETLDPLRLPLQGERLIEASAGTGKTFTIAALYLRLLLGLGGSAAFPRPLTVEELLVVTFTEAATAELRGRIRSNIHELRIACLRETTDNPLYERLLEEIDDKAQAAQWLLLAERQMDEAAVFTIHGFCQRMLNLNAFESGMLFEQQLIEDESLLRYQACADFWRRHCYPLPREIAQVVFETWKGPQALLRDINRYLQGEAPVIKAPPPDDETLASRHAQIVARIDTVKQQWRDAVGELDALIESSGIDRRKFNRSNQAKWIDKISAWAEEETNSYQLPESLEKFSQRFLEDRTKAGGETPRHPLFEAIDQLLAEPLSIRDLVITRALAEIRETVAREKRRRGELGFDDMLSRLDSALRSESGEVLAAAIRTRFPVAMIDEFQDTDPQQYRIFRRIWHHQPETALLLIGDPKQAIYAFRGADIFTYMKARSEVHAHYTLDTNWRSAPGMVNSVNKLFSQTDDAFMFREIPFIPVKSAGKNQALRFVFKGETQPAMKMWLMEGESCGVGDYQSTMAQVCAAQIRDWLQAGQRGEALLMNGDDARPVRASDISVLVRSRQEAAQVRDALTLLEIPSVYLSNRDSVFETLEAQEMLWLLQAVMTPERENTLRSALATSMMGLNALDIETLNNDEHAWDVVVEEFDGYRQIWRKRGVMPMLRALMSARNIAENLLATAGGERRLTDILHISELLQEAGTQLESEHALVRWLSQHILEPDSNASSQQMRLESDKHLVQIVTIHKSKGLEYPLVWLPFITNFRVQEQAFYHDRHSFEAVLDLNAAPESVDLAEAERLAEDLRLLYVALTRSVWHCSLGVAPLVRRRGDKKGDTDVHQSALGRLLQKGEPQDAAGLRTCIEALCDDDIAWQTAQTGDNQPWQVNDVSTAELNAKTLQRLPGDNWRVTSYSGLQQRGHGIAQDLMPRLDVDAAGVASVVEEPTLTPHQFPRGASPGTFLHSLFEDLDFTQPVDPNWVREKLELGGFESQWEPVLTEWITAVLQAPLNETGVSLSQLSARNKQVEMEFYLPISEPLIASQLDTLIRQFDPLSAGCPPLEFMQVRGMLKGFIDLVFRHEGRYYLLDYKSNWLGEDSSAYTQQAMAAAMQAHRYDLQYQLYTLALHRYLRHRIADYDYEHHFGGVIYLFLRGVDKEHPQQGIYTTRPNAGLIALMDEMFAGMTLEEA

[1] = Counterscreen for AddAB inhibitors: absorbance-based bacterial cell-based high throughput dose response assay for inhibitors of bacterial viability. [Related pubchem assays (depositor defined):AID435030, AID449728, AID449731, AID488942, AID488955, AID488956]; type: functional
SUMO-activating enzyme = SUMO-activating enzyme (Homo sapiens, UniProt Q9UBT2); test: SUMOylation inhibitor hit validation, confirmation, SUMOylation inhibitor project, biochemical, AlphaScreen (AID 2018); type: functional
Sequence of SUMO-activating enzyme (Q9UBE0 whole entry): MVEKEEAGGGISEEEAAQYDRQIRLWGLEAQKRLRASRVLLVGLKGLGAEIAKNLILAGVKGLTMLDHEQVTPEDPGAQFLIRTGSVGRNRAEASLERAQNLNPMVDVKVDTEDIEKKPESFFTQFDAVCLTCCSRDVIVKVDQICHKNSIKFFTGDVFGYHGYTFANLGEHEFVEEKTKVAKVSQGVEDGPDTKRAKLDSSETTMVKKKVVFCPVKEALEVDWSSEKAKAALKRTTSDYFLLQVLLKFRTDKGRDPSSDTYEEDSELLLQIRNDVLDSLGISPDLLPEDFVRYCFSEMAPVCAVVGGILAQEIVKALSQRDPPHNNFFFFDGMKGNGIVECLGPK
Sequence of SUMO-activating enzyme (Q9UBT2 whole entry): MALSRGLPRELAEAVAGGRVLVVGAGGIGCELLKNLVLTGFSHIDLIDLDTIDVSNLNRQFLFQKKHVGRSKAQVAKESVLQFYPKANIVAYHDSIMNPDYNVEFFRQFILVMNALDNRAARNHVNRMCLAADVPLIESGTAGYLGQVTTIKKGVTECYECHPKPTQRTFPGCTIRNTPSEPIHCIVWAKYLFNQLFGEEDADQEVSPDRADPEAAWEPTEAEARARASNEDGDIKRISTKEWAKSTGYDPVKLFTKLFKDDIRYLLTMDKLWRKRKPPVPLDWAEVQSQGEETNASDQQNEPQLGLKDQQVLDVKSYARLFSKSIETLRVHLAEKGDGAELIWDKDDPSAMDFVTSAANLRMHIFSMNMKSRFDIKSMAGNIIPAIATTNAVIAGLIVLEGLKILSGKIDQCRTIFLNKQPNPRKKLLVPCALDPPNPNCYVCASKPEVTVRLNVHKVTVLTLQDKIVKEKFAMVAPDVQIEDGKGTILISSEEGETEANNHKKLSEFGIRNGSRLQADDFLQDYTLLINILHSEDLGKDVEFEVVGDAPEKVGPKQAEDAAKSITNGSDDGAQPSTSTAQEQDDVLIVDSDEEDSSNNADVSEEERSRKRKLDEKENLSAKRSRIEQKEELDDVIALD

Albumin = Albumin (Bos taurus, UniProt P02769); test: Counterscreen for inhibitors of T-cell receptor (TCR)-CD3 interaction: Fluorescence-based biochemical high throughput dose response assay to identify inhibitors of T-cell receptor (TCR)-CD3 interaction using a TAMRA-labeled BSA probe.; type: functional
Sequence of Albumin (P02769 whole entry): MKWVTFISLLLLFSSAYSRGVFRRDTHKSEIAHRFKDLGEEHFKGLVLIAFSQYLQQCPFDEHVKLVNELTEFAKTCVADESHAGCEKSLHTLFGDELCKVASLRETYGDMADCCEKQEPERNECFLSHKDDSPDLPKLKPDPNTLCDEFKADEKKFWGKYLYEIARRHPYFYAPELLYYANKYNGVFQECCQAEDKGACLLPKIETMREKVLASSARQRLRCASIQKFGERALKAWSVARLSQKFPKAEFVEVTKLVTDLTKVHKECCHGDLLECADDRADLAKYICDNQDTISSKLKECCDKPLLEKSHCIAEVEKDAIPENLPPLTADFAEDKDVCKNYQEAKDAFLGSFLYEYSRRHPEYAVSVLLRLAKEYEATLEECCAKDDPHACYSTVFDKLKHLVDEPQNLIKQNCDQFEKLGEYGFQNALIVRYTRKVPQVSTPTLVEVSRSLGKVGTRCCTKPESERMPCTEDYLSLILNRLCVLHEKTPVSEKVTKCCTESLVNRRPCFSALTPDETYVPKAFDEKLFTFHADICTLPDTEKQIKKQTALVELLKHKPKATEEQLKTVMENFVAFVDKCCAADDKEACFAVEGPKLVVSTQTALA

Cannabinoid receptor 2 [2] = target: T2, Cannabinoid receptor 2 (Homo sapiens, UniProt P34972); test: SAR analysis of agonists of the Cannabinoid Receptor 2 using an Image-Based Assay - Set 3. [Related pubchem assays (depositor defined):AID2013, AID2026]; type: functional
T2 sequence (P34972 whole entry): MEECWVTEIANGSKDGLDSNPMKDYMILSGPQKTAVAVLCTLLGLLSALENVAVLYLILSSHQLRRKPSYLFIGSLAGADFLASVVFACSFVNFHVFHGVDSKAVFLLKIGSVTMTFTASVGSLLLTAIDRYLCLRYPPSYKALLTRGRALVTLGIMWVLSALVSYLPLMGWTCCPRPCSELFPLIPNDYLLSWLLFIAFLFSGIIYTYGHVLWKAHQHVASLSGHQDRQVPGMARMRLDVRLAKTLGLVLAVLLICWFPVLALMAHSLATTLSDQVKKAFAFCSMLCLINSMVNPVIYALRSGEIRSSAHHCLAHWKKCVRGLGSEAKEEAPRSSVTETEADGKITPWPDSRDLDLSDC

Cannabinoid receptor 1 [3] = target: T3, Cannabinoid receptor 1 (Homo sapiens, UniProt P21554); test: SAR analysis of antagonists of the Cannabinoid Receptor 1 using an Image-Based Assay - Set 2. [Related pubchem assays (depositor defined):AID2013, AID2026]; type: functional
T3 sequence (P21554 whole entry): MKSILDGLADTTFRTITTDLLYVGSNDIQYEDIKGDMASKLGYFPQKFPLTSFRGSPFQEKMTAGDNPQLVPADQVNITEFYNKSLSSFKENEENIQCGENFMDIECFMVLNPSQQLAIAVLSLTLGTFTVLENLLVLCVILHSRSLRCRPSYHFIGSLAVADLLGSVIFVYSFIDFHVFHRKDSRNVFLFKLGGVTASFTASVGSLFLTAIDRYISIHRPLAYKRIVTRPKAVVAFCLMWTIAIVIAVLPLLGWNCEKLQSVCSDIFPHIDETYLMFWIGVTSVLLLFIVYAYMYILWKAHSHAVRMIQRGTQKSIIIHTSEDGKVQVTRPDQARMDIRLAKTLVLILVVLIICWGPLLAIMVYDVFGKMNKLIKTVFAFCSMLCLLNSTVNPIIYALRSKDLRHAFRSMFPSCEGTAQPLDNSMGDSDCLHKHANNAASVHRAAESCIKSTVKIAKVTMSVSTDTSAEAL

Cannabinoid receptor 2 [4] = target: T2, Cannabinoid receptor 2; test: SAR analysis of agonists of the Cannabinoid Receptor 2 using an Image-Based Assay. [Related pubchem assays (depositor defined):AID2013, AID2026]; type: functional
[5] = control 3'UTR Renilla luciferase suppression, dose response, counter-screen for Shn3 inhibitor project, cell-based, Clone20-Shn3RL, cherry-picked (AID 624133); type: functional
[6] = HepG2 cell cytotoxicity, dose response, cytotoxicity control for Shn3 inhibitor project, CellTiter-Glo, cherry-picked (AID 624134); type: functional, cell-based
INS1 = test: beta cell apoptosis inhibitors, cytokine rescue, dose response, luminescence, retest (AID 449756); type: functional, cell-based; details: Rattus norvegicus;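 note: cell death triggered by IL-1 beta plus TNF-alpha plus IFN-gamma mixture; protective hits raise ATP signal compared with cytokine alone wells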
[7] = target: T4, G-protein coupled receptor 55 (Homo sapiens, UniProt Q9Y2T6); test: SAR Analysis of Selective Antagonists of GPR55 using an Image-Based Assay - Set 4. [Related pubchem assays (depositor defined):AID2013, AID2026]; type: functional
T4 sequence (Q9Y2T6 whole entry): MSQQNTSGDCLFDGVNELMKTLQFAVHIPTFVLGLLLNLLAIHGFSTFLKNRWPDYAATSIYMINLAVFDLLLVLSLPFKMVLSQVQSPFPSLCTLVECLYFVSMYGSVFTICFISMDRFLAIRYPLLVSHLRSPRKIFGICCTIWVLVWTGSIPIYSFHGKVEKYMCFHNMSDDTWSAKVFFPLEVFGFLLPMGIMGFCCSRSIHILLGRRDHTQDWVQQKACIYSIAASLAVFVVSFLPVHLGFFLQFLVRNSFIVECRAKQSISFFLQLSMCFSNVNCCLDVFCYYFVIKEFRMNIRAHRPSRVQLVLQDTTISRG

Cannabinoid receptor 2 [8] = target: T2, Cannabinoid receptor 2; test: SAR analysis of antagonists of the Cannabinoid Receptor 2 using an Image-Based Assay. [Related pubchem assays (depositor defined):AID2013, AID2026]; type: functional
[9] = target: T4, G-protein coupled receptor 55; test: GPR55 antagonists blocking LPI-driven arrestin recruitment, primary screen, imaging, U2OS, beta-arrestin-GFP, LPI agonist (AID 2013); type: functional;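 note: antagonist potency measured as reduced agonist-driven arrestin aggregation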
Cannabinoid receptor 1 [10] = target: T3, Cannabinoid receptor 1; test: SAR analysis of agonists of the Cannabinoid Receptor 1 using an Image-Based Assay - Set 2. [Related pubchem assays (depositor defined):AID2013, AID2026]; type: functional
[11] = target: T5, G-protein coupled receptor 35 (Homo sapiens, UniProt Q9HC97); test: SAR analysis of Antagonists of the GPR35 Receptor using an Image-Based Assay - Set 3. [Related pubchem assays (depositor defined):AID2013, AID2026]; type: functional
T5 sequence (Q9HC97 whole entry): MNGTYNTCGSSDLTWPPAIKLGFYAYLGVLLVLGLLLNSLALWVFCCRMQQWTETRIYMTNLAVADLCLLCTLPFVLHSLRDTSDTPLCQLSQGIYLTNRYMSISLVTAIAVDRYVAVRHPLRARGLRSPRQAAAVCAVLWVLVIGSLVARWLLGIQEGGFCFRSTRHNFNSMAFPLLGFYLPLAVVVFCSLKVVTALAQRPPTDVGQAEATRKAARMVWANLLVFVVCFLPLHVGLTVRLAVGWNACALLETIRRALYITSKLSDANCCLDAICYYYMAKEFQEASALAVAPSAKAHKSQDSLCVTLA

Cannabinoid receptor 1 [12] = target: T3, Cannabinoid receptor 1; test: SAR analysis of antagonists of the Cannabinoid Receptor 1 using an Image-Based Assay - Set 4. [Related pubchem assays (depositor defined):AID2013, AID2026]; type: functional
[13] = target: T4, G-protein coupled receptor 55; test: GPR55 antagonist potency of analogs, SAR follow-up, imaging, U2OS, beta-arrestin-GFP, LPI agonist, set 2 (AID 2820); type: functional
Cannabinoid receptor 2 [14] = target: T2, Cannabinoid receptor 2; test: SAR analysis of antagonists of the Cannabinoid Receptor 2 using an Image-Based Assay - Set 3. [Related pubchem assays (depositor defined):AID2013, AID2026]; type: functional
[15] = target: T5, G-protein coupled receptor 35; test: SAR analysis of Agonists of the GPR35 Receptor using an Image-Based Assay - Set 2. [Related pubchem assays (depositor defined):AID2013, AID2026]; type: functional
[16] = Shn3 3'UTR reporter inhibitors, dose response, cell-based, Clone20 osteoblasts, firefly luciferase, cherry-picked (AID 624132); type: functional;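 note: firefly luciferase luminescence from reporter carrying the Shn3 3'UTR in osteoblasts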
[17] = target: T6, E3 ubiquitin-protein ligase XIAP (Homo sapiens, UniProt P98170); test: SAR analysis of Antagonists of XIAP-Bir3 domain of IAP-family anti-apoptotic proteins. [Related pubchem assays (depositor defined):AID1018, AID1449, AID1513, AID1514, AID1638]
T6 sequence (P98170 whole entry, the tested form may be a part): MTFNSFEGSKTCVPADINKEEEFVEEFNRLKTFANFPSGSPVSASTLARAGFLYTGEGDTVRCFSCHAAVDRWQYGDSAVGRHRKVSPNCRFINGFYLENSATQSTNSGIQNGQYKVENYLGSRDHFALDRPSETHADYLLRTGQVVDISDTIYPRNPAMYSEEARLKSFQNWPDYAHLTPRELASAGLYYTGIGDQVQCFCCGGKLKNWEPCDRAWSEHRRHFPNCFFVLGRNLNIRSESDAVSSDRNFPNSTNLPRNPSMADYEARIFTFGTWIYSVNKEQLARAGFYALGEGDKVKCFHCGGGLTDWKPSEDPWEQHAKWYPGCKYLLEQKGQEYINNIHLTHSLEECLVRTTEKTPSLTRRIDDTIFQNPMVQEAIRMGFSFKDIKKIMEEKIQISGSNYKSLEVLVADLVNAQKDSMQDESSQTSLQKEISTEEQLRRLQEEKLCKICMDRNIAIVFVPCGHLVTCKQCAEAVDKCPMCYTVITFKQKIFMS

[18] = target: T6, E3 ubiquitin-protein ligase XIAP; test: SAR analysis of Antagonists of IAP-family anti-apoptotic proteins. [Related pubchem assays (depositor defined):AID1018, AID1449, AID1513, AID1514, AID1638]
[19] = target: Intestinal-type alkaline phosphatase (Mus musculus, UniProt P24822); test: mouse intestinal alkaline phosphatase activators, dose response, biochemical, luminescence, uHTS hits (AID 488783); type: functional
Sequence of Intestinal-type alkaline phosphatase (Mus musculus, UniProt P24822) (P24822 whole entry): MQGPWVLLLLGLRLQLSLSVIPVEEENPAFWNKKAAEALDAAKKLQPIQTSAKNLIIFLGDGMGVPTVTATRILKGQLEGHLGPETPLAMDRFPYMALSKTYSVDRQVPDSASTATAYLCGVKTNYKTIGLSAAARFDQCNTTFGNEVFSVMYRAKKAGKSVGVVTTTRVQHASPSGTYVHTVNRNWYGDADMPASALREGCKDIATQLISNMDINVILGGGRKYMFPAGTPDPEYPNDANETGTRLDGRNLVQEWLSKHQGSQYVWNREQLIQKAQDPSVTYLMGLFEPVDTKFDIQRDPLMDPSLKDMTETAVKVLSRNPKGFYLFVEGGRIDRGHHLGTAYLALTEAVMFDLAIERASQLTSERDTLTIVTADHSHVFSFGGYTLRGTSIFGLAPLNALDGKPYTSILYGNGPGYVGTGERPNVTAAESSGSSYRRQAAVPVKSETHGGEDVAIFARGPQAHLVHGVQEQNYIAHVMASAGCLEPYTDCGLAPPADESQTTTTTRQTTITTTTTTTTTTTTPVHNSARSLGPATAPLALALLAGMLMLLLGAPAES

[20] = target: T7, Alkaline phosphatase, tissue-nonspecific isozyme (Homo sapiens, UniProt P05186); test: TNAP enzyme activators, dose response, selectivity assay for mouse IAP activator project, biochemical, TNAP isozyme, mouse IAP uHTS hits (AID 488880); type: functional
T7 sequence (P05186 whole entry): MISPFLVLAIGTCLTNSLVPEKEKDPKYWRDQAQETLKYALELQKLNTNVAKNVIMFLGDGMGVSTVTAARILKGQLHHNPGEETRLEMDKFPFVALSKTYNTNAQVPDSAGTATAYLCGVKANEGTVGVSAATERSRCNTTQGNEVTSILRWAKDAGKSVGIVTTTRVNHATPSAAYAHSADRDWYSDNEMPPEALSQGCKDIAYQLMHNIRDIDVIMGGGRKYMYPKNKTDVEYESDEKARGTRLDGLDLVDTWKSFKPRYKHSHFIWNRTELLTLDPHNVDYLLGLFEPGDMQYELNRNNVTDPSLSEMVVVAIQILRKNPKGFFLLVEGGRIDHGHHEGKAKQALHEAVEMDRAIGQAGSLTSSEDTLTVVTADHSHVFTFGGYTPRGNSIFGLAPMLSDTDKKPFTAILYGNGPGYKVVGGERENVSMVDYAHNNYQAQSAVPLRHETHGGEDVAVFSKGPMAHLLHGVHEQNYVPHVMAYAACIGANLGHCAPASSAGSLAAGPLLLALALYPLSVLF

[21] = target: Intestinal-type alkaline phosphatase (Homo sapiens, UniProt P09923); test: activation of human intestinal alkaline phosphatase – biochemical, dose response (AID 488873); type: functional
Sequence of Intestinal-type alkaline phosphatase (Homo sapiens, UniProt P09923) (P09923 whole entry): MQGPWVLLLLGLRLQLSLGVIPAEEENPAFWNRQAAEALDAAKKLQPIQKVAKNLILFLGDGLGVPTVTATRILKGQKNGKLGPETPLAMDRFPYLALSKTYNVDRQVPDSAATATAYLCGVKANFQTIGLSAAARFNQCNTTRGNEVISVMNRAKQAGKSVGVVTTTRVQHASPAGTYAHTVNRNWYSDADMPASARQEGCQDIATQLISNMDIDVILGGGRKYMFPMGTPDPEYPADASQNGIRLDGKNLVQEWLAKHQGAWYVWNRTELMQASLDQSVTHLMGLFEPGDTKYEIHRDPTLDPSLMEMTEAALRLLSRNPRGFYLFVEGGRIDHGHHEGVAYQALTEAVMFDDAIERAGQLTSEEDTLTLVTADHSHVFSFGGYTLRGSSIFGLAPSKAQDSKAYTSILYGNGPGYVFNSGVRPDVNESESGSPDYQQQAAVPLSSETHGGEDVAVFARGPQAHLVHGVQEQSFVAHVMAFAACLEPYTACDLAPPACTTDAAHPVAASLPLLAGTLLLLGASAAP

O=C(CN1C(=O)S/C(=C\c2ccccc2)C1=O)NNC(=O)c1ccccc1O
IC50 (Exodeoxyribonuclease V): > 119 µM (inactive) | IC50 [1]: > 119 µM (inactive) | IC50 (SUMO-activating enzyme): 38.2 µM (active) | IC50 (Albumin): > 94.1 µM (inactive)

Cc1nc(N2CCN(C(=O)c3ccco3)CC2)c2c3c(sc2n1)CC(C)CC3 (stereo not given)
EC50 (Cannabinoid receptor 2 [2]): 28.2 µM (inactive) | IC50 (Cannabinoid receptor 1 [3]): > 32 µM (inactive) | EC50 (Cannabinoid receptor 2 [4]): > 32 µM (inactive) | AC50 [5]: 4.08 µM (active) | AC50 [6]: 50.5 µM (active) | AC50 (INS1): 6.56 µM (active) | IC50 [7]: 0.527 µM (active) | IC50 (Cannabinoid receptor 2 [8]): > 32 µM (inactive) | IC50 [9]: 0.653 µM (active) | EC50 (Cannabinoid receptor 1 [10]): > 32 µM (inactive) | IC50 [11]: > 32 µM (inactive) | IC50 (Cannabinoid receptor 1 [12]): 3.17 µM (active) | IC50 [13]: 0.342 µM (active) | IC50 (Cannabinoid receptor 2 [14]): > 32 µM (inactive) | EC50 [15]: > 32 µM (inactive) | AC50 [16]: 2.33 µM (active)

CN[C@@H](C)C(=O)NC1CCCN([C@@H](C)C(=O)NC2CCc3ccccc3C2)C1=O (stereo not given in full)
IC50 [17]: > 100 µM (inactive) | IC50 [18]: > 100 µM (inactive)

Cc1ccc(NS(=O)(=O)c2ccc3nc(O)oc3c2)c(C)c1
EC50 [19]: 62.7 µM (active) | EC50 [20]: 58.7 µM (active) | EC50 [21]: 60.3 µM (active)
